These results are taken from PubChem BioAssay (NCI).

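Five concentrations, 48 hours, 96-well plates. GI50 = concentration required for 50% inhibition of growth. TGI denotes the concentration required for complete inhibition of growth.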

Test systems include IGROV1 ovarian; K-562 leukemia; NCI-H23 lung; NCI-H522 lung; SF-539 CNS; SK-MEL-2 melanoma; SNB-19 CNS; SW-620 colon; UACC-62 melanoma; UO-31 renal.
Holding throughout (test): growth of human tumour cells (NCI), 48 h

In the case of `O=C([O-])c1ccc2c(c1)-c1nc-2nc2[n-]c(nc3nc(nc4[n-]c(n1)c1ccc(C(=O)[O-])cc41)-c1cc(C(=O)[O-])ccc1-3)c1ccc(C(=O)[O-])cc21.[Fe+2]`, the GI50 was above 50 µM with IGROV1 ovarian; above 23 µM with K-562 leukemia; above 50 µM in the test on NCI-H23 lung; above 50 µM with NCI-H522 lung; above 29.5 µM with SF-539 CNS; above 50 µM in the test on SK-MEL-2 melanoma. The GI50 in the test with SNB-19 CNS was above 50 µM; in the test with SW-620 colon it was above 21.7 µM; in the test with UACC-62 melanoma, above 50 µM; in the test with UO-31 renal, above 50 µM. In addition, the TGI is above 50 µM in the test on IGROV1 ovarian; above 33.7 µM in the test with K-562 leukemia; above 50 µM in the test on NCI-H23 lung; above 50 µM with NCI-H522 lung; above 50 µM with SF-539 CNS; above 50 µM in the test with SK-MEL-2 melanoma. The TGI was above 50 µM with SNB-19 CNS, above 31.5 µM in the test with SW-620 colon, above 50 µM with UACC-62 melanoma and above 50 µM with UO-31 renal.
As for `CCOP(=O)(CC(=O)C1=C(O)C(CCCNC(=O)OC(C)(C)C)N(Cc2ccc(OC)c(OC)c2)C1=O)OCC` (configuration not stated), the TGI in the test on IGROV1 ovarian, in the test on K-562 leukemia, with NCI-H23 lung, in the test with NCI-H522 lung, in the test on SF-539 CNS and in the test with SK-MEL-2 melanoma was above 100 µM throughout. Also, the TGI with SNB-19 CNS, in the test on SW-620 colon, in the test with UACC-62 melanoma and in the test on UO-31 renal was above 100 µM in each case.
`CCOC(=O)/C=C1\SC(=Nc2ccc(C#N)cc2)N(CCN2C(=O)/C(=C/C(=O)OCC)SC2=Nc2ccc(C#N)cc2)C1=O`: the GI50 is 1.99 µM with IGROV1 ovarian; 0.786 µM in the test on K-562 leukemia; 3.52 µM in the test with NCI-H23 lung; 6.56 µM with NCI-H522 lung; 3.53 µM in the test with SF-539 CNS; 12.1 µM in the test with SK-MEL-2 melanoma. Moreover, the GI50 in the test on SNB-19 CNS was 2.12 µM; in the test with SW-620 colon it was 0.416 µM; in the test on UACC-62 melanoma it was 3.25 µM; in the test with UO-31 renal it was 2 µM. The TGI in the test with IGROV1 ovarian is 10.7 µM; in the test with K-562 leukemia it was above 100 µM; in the test on NCI-H23 lung, 18.1 µM; in the test with NCI-H522 lung it was 24.3 µM; in the test with SF-539 CNS, 12.8 µM; with SK-MEL-2 melanoma, 28.8 µM. In addition, the TGI in the test on SNB-19 CNS came out at 12.9 µM; with SW-620 colon it was 2.63 µM; in the test on UACC-62 melanoma it was 17.9 µM; with UO-31 renal it was 11.3 µM.
On to `Nc1ccc(C#Cc2cncnc2Nc2ccc(OCc3cccc(F)c3)c(Cl)c2)cc1`, for which the GI50 is 4.93 µM with IGROV1 ovarian; 11.4 µM with K-562 leukemia; above 20.5 µM in the test on NCI-H23 lung; 4.94 µM in the test on NCI-H522 lung; above 15.8 µM with SF-539 CNS; above 16.4 µM in the test on SK-MEL-2 melanoma. For the same compound, the GI50 in the test with SNB-19 CNS was above 14.3 µM; in the test on SW-620 colon, above 25 µM; in the test on UACC-62 melanoma it was 19.4 µM; in the test on UO-31 renal it was 3.2 µM. Besides, the TGI is above 25 µM in the test with IGROV1 ovarian; above 25 µM in the test with K-562 leukemia; above 25 µM with NCI-H23 lung; above 23.2 µM in the test on NCI-H522 lung; above 25 µM in the test with SF-539 CNS; above 25 µM in the test on SK-MEL-2 melanoma. For the same compound, the TGI in the test with SNB-19 CNS, in the test on SW-620 colon, in the test on UACC-62 melanoma and in the test on UO-31 renal was above 25 µM each time.
As for `C=C(CN1CCN(c2cccc(C(F)(F)F)c2)CC1)c1ccc(C(=O)Nc2ccccc2N)cc1`, the GI50 was 14.2 µM in the test with IGROV1 ovarian; 0.185 µM in the test on K-562 leukemia; 3.72 µM in the test on NCI-H23 lung; 6.14 µM in the test with NCI-H522 lung; 0.543 µM in the test on SF-539 CNS; 3.44 µM in the test on SK-MEL-2 melanoma. Moreover, the GI50 in the test on SNB-19 CNS was 4.11 µM; with SW-620 colon, 1.28 µM; in the test on UACC-62 melanoma it was 0.409 µM; in the test with UO-31 renal, 2.4 µM. The TGI is above 50 µM in the test with IGROV1 ovarian; 8.27 µM in the test on K-562 leukemia; above 32.9 µM with NCI-H23 lung; above 16.1 µM with NCI-H522 lung; 2.82 µM in the test with SF-539 CNS; 32.2 µM in the test on SK-MEL-2 melanoma. For the same compound, the TGI in the test on SNB-19 CNS is above 30.2 µM; with SW-620 colon, 15.9 µM; with UACC-62 melanoma, 4.89 µM; with UO-31 renal, 12.1 µM.
Regarding `CS(=O)(=O)N1CCN(Cc2cc3nc(-c4cccc5[nH]ncc45)nc(N4CCOCC4)c3s2)CC1` (tested in a mixture with another compound), the GI50 in the test with IGROV1 ovarian was 0.0324 µM; in the test on K-562 leukemia, 0.349 µM; with NCI-H23 lung, 0.26 µM; in the test on NCI-H522 lung, 0.375 µM; in the test with SF-539 CNS, 0.0319 µM; with SK-MEL-2 melanoma, 0.753 µM. Also, the GI50 was 0.328 µM in the test with SNB-19 CNS, 0.824 µM in the test with SW-620 colon, 0.105 µM with UACC-62 melanoma and 0.0493 µM in the test on UO-31 renal. Further, the TGI with IGROV1 ovarian was 0.188 µM; in the test with NCI-H522 lung, 13 µM; with SF-539 CNS, 0.108 µM; in the test on SK-MEL-2 melanoma, 6.67 µM; in the test with SW-620 colon, above 100 µM; with UACC-62 melanoma, 0.706 µM. This compound also had a TGI in the test with UO-31 renal of 0.292 µM.
With `CC[N+](CC)=c1ccc2nc3c(cc(NCc4ccccc4)c4ccccc43)oc-2c1`, the GI50 was 0.258 µM in the test with IGROV1 ovarian; 0.121 µM with K-562 leukemia; 0.148 µM in the test with NCI-H23 lung; 0.149 µM in the test with NCI-H522 lung; 4.19 µM in the test with SF-539 CNS; 0.737 µM in the test with SK-MEL-2 melanoma. For the same compound, the GI50 was 1.19 µM in the test with SNB-19 CNS, 0.302 µM in the test on SW-620 colon, 0.944 µM in the test on UACC-62 melanoma and 0.089 µM in the test on UO-31 renal. Moreover, the TGI in the test with IGROV1 ovarian turned out to be 1.67 µM; in the test on K-562 leukemia it was 0.724 µM; in the test with NCI-H23 lung, 0.352 µM; in the test on NCI-H522 lung it was 0.567 µM; in the test with SF-539 CNS, 21.2 µM; in the test on SK-MEL-2 melanoma, 2.25 µM. The TGI with SNB-19 CNS turned out to be 2.51 µM; with SW-620 colon it was 1.4 µM; in the test with UACC-62 melanoma it was 2.52 µM; with UO-31 renal, 1.15 µM.
`CCC(C(=O)[O-])C(=O)[O-].CCC(C(=O)[O-])C(=O)[O-].N.N.NCCCCCN.[Pt+4].[Pt+4]`: the GI50 with IGROV1 ovarian, with K-562 leukemia, in the test on NCI-H23 lung, in the test with NCI-H522 lung, in the test on SF-539 CNS and in the test on SK-MEL-2 melanoma was above 100 µM in each case. Besides, the GI50 in the test with SNB-19 CNS is above 100 µM; in the test on SW-620 colon, above 100 µM; in the test with UACC-62 melanoma, 38.3 µM; in the test with UO-31 renal it was above 100 µM. Moreover, the TGI with IGROV1 ovarian, in the test on K-562 leukemia, in the test on NCI-H23 lung, with NCI-H522 lung, in the test with SF-539 CNS and in the test on SK-MEL-2 melanoma was above 100 µM in each case. The TGI with SNB-19 CNS, in the test with SW-620 colon, in the test on UACC-62 melanoma and in the test with UO-31 renal was above 100 µM in each case.
As to `Nc1c(C(=O)c2cccc(OCCN3CCOCC3)c2)cnn1-c1ccc(F)cc1`, the GI50 in the test on IGROV1 ovarian, in the test on K-562 leukemia, in the test with NCI-H23 lung, in the test on NCI-H522 lung, in the test with SF-539 CNS and with SK-MEL-2 melanoma was above 25 µM in each case. The GI50 in the test on SNB-19 CNS, with SW-620 colon, in the test with UACC-62 melanoma and with UO-31 renal was above 25 µM throughout. Further, the TGI in the test on IGROV1 ovarian, in the test on K-562 leukemia, in the test on NCI-H23 lung, in the test on NCI-H522 lung, in the test with SF-539 CNS and in the test on SK-MEL-2 melanoma was above 25 µM in each case. Besides, the TGI in the test on SNB-19 CNS, in the test on SW-620 colon, in the test with UACC-62 melanoma and in the test on UO-31 renal was above 25 µM in each case.
As for `CCCCCCCCOc1ccc(/C=N/Nc2cc(C)nc3ccc(Cl)cc23)cc1`, the GI50 was 1.84 µM in the test on IGROV1 ovarian; 1.66 µM with K-562 leukemia; 1.9 µM in the test on NCI-H23 lung; 1.89 µM with NCI-H522 lung; 1.86 µM with SF-539 CNS; 1.97 µM in the test on SK-MEL-2 melanoma. In addition, the GI50 in the test on SNB-19 CNS is 2 µM; with SW-620 colon it was 1.89 µM; in the test on UACC-62 melanoma it was 1.87 µM; in the test with UO-31 renal it was 1.55 µM. Further, the TGI in the test with IGROV1 ovarian was 3.67 µM; in the test with K-562 leukemia, 4.24 µM; in the test on NCI-H23 lung, 3.84 µM; with NCI-H522 lung it was 3.86 µM; in the test with SF-539 CNS, 3.29 µM; in the test on SK-MEL-2 melanoma, 3.59 µM. Besides, the TGI with SNB-19 CNS stood at 3.83 µM; with SW-620 colon, 3.63 µM; in the test on UACC-62 melanoma it was 3.49 µM; with UO-31 renal, 2.93 µM.
Consider `O=C(CC/C(C/C(=N/O)c1ccc(F)cc1)=N/O)N(Cc1ccccc1)Cc1ccccc1`, for which the TGI with IGROV1 ovarian, in the test on K-562 leukemia, in the test on NCI-H23 lung, in the test with NCI-H522 lung, in the test on SF-539 CNS and with SK-MEL-2 melanoma was above 100 µM in each case. Further, the TGI in the test on SNB-19 CNS, in the test on SW-620 colon, in the test with UACC-62 melanoma and in the test with UO-31 renal was above 100 µM in each case.
Turning to `CCOc1ccccc1NC(=O)CCc1nnc2s/c(=C\CCc3ccccc3)c(=O)n12`, the TGI in the test with IGROV1 ovarian, in the test on K-562 leukemia, in the test with NCI-H23 lung, in the test on NCI-H522 lung, in the test on SF-539 CNS and in the test on SK-MEL-2 melanoma was above 100 µM throughout. Further, the TGI in the test with SNB-19 CNS, in the test with SW-620 colon, with UACC-62 melanoma and in the test with UO-31 renal was above 100 µM each time.
